{"source": "patent US9260488B2", "about": "“Replacement therapy for dental caries” (Oragenics, Inc., priority 2012, dated 2016)", "assay_in_all_cases": "Minimum inhibitory concentration (CLSI M07-8A, modified)", "format_in_all_cases": "cell-based", "key": {"[1]": {"system": "Clostridium difficile UK1", "conditions": "peptide purified to about 90%; THyex medium; 24 hour incubation; anaerobic chamber at 37° C.", "description": "(§1) Wild-type mutacin 1140, mutacin 1140 with a F1I mutation, mutacin 1140 with a W4A mutation, and mutacin 1140 with a R13D mutation was purified to about 90% purity (measured via HPLC). The minimum inhibitory concentration (MIC) of MU1140 and variants of MU1140 was determined against several bacteria. The MIC is the lowest concentration of MU1140 that will inhibit the visible growth of a microorganism after 24 hour incubation. A lower MIC is an indication of greater inhibitory activity. Preparation of the antimicrobial agent and bacterial inoculum for minimum inhibitory concentrations (MICs) was performed by following the method described in Clinical Laboratory Standard Institute (CLSI) M07-8A with some minor modifications. Streptococcus mutans UA159 was tested overnight in a shaking incubator to maintain uniform dispersion of the bacteria. Clostridium difficile UK1 was tested in an anaerobic chamber at 37° C. The medium used was THyex."}, "[2]": {"system": "Micrococcus luteus ATCC10240", "conditions": "peptide purified to about 90%; THyex medium; 24 hour incubation", "description": "as §1"}, "[3]": {"system": "Staphylococcus aureus FA1", "conditions": "peptide purified to about 90%; THyex medium; 24 hour incubation", "description": "as §1"}, "[4]": {"system": "Streptococcus mutans UA159", "conditions": "peptide purified to about 90%; THyex medium; 24 hour incubation; shaking incubator overnight", "description": "as §1"}, "[5]": {"system": "Streptococcus pneumonia FA1", "conditions": "peptide purified to about 90%; THyex medium; 24 hour incubation", "description": "as §1"}}, "data": [{"substance": "Mu1140 Wild-type: wild-type lantibiotic mutacin MU1140 (SEQ ID NO:1) produced by S. mutans strain JH1140 (ATCC 55676)", "values": [{"measurement": "MIC Clostridium difficile UK1", "setting": "[1]", "result": 16}, {"measurement": "MIC Micrococcus luteus ATCC10240", "setting": "[2]", "result": 0.0625}, {"measurement": "MIC Staphylococcus aureus FA1", "setting": "[3]", "result": 16}, {"measurement": "MIC Streptococcus mutans UA159", "setting": "[4]", "result": 2}, {"measurement": "MIC Streptococcus pneumonia FA1", "setting": "[5]", "result": 0.5}]}]}
